Test results: PMC2900060, “Antioxidant and hepatoprotective effects of the methanol extract of the leaves of Satureja macrostema” (Pharmacognosy Magazine, 2010)
≈ marks a conversion by molar mass, not a printed value.

How the values were obtained:
[1] = Iron-chelating activity (ferrozine); conditions: Fe2+-ferrozine, Table 2
Procedure: After 5 min incubation, the reaction was initiated by 1.0 ml of 5.0 mM ferrozine. After 10 min of equilibrium, the absorbance at 562 nm was recorded. The controls contained all reaction reagents except extracts or positive control substance. Three experiments were performed and the average result was adopted. The iron-chelating activities were calculated from the absorbance of the control (Ac) and of the sample (As) using the following equation: Inhibition(%) = Ac −As × 100 Ac

[2] = Inhibition of DPPH radical; conditions: concentration 100 μg/ml (table head prints mg/ml for SM)
Procedure: The free radical scavenging activity of the extract was analyzed by the DPPH (1,1-- diphenyl-- 2--picryl hydrazyl) assay.[10] A total of 2 ml of the test extract, at concentrations ranging from 1 μg/ml to 100 μg/ml each, was mixed with 1 ml of 0.5 mM DPPH (in methanol). The absorbance at 517 nm was taken after 30 min of incubation in the dark at room temperature. The experiment was done in triplicate. The percentage antioxidant activity was calculated as follows: %Antioxidant Activity [AA] = l00 --[ { (Abssample -- Absblank) X 100 }/Abs ml of methanol plus 2.0 ml of the extract was used as the blank while 1.0 ml of the 0.3 mM DPPH solution plus 2.0 ml of methanol was used as the negative control. Ascorbic acid was used as the reference standard.

[3] = Inhibition of nitric oxide radical (sodium nitroprusside, Griess reaction); conditions: concentration 50 μg/ml
Procedure: Nitric oxide generated from sodium nitroprusside in aqueous solution at physiological pH interacts with oxygen to produce nitrite ions, which were measured by the Griess reaction.[1213] The reaction mixture (3 ml) containing sodium nitroprusside (10 Mm) in phosphate buffered saline (PES) and SM and the reference compound in different concentrations (5, 10, 25, 50 and 100 μg) were incubated at 25°C for 150 min. In each 30 min, 0.5 ml of the incubated sample was removed and 0.5 ml of the Griess reagent (1% sulfanilamide, 0.1% naphthyl ethylene diamine dihydrochloride in 2% H3PO4) was added. The absorbance of the chromophore formed was measured at 546 nm. All the tests were performed in triplicate and the results were averaged. BHT was used as the reference compound. All the tests were performed in triplicate and the results were averaged. The percentage decrease in absorbance was calculated.[10] Quercetine was used as the standard.

[4] = Inhibition of superoxide anion radical (NBT/NADH/PMS); conditions: concentration 50 μg/ml
Procedure: Measurement of superoxide anion scavenging activity of SM was performed based on the method described by […][11] and slightly modified. About 1 ml of nitroblue tetrazolium (NBT) solution containing 156 μM NBT which is dissolved in 1.0 ml of phosphate buffer (100 mM, pH 7.4), 1 ml of NADH solution containing 468 μM of NADH which is dissolved in 1 ml of phosphate buffer (100 mM, pH 7.4) and 0.1 ml of various concentrations of SM and the reference compounds (5, 10, 25, 50 and 100 μg) were mixed and the reaction started by adding l00 μl of phenazine methosulphate (PMS) solution containing 60 μM of PMS l00 μl of phosphate buffer (100 mM, pH 7.4). The reaction mixture was incubated at 25°C for 5 min and the absorbance at 560 nm was measured against the control samples. All the tests were performed in triplicate and the results were averaged. The percentage decrease in absorbance was calculated.[10] Quercetine was used as the standard.

| SMILES | IC50 Ion-chelating [1] | DPPH scavenging [2] | DPPH scavenging ([2]; listed as ascorbic acid) | Nitric oxide scavenging [3] | Superoxide anion scavenging [4] |
| --- | --- | --- | --- | --- | --- |
| O=C1O[C@H]([C@@H](O)CO)C(O)=C1O [Ascorbic acid] | 49.3 mg/mL (≈ 280 mM) | 97 ± 0.52 % | 97% |  |  |
| O=c1c(O)c(-c2ccc(O)c(O)c2)oc2cc(O)cc(O)c12 [Quercetin] |  |  |  | 93.8 ± 0.98 % | 90.87 ± 0.43 % |
| Cc1cc(C(C)(C)C)c(O)c(C(C)(C)C)c1 [BHT] | 46.6 mg/mL (≈ 211 mM) |  |  |  |  |
